In US7741521B2, “Inhibition of bid-induced cell-death using small organic molecules” (The Burnham Institute, priority 2004, dated 2010):

Target: T1, BID (Mus musculus, UniProt P70444)
T1 construct: poly-His (N); made in house; host or cells: E. coli BL21
T1 sequence (P70444 1-195): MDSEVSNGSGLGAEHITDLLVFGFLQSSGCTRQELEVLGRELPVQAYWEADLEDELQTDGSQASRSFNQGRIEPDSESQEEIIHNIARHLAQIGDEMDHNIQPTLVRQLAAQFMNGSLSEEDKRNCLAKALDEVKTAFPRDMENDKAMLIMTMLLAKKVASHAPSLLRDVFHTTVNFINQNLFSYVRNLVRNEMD
Assay: NMR binding to BID (HSQC/TROSY chemical shifts)
Details: NMR
Experimental: Recombinant full length mouse BID was produced from a pET-19b (Novagen) plasmid construct containing the entire nucleotide sequence for BID fused to an N-terminal poly-His tag. Unlabeled BID was expressed in E. coli BL21 in LB media at 37° C., with an induction period of 3-4 hours with 1 mM IPTG. ^15N-labeled BID was similarly produced, with growth occurring in M9 media supplemented with 0.5 g/L ^15NH4Cl. ε-^13C-Met labeled BID was produced in M9 media supplemented with 50 mg/L of ε-^13C-Met at time of induction with IPTG. Following cell lysis, soluble BID was purified over a Hi-Trap chelating column (Amersham, Pharmacia), followed by ion-exchange purification with a MonoQ (Amersham, Pharmacia) column. Final BID samples were dialyzed into a buffer appropriate for the subsequent experiments. tBID was produced by cleavage of purified BID with caspase-8, as known in the art.
For all NMR experiments, BID was exchanged into 50 mM phosphate buffer at pH 7.5 and measurements were performed at 30° C. 2D [^15N,^1H]-TROSY spectra for BID were measured with 0.5 mM samples of ^15N-labeled BID. 2D [^13C,^1H]-HSQC spectra were measured with 0.2 mM samples of ε-^13C-Met labeled BID. 2D [^1H,^1H]-NOESY spectra were acquired with small molecules at a concentration of 0.9 mM in the presence of 10 μM BID. T1ρ competition experiments (200 msec spin-lock duration) were performed on either 100 μM BI-2A7 or a mixture of 100 μM BI-2A7 and 10 μM BI-6C9, in the presence and absence of 10 μM BID. All experiments were performed with either a 500 MHz or 600 MHz Bruker Avance spectrometer, both equipped with TXI probes. Typical parameters for the 2D [^15N,^1H]-TROSY spectra included ^1H and ^15N π/2 pulse lengths of 11 μsec and 40 μsec, respectively; ^1H and ^15N sweep widths of 12 ppm and 32 ppm, respectively; 16 scans and 256 indirect acquisition points and a recycle delay of 1 sec. For the 2D [^13C,^1H]-HSQC typical parameters included ^1H and ^13C π/2 pulse lengths of 10 μsec and 13 μsec, respectively; ^1H and ^13C sweep widths of 12 ppm and 5 ppm, respectively; 128 scans and 80 indirect acquisition points and a recycle delay of 1 sec. […]
To examine the binding affinity of some compounds of the invention to BID, 2D [^13C,^1H]-HSQC spectra in presence of ^13C methionine-labeled protein were measured, as at least one methionine is present in the hydrophobic groove of BID (FIG. 4B). […]
Monitoring the variation of cross-peak intensity upon addition of increasing amounts of compound II, allowed to estimate its dissociation constant KD. The arrow on FIG. 5C indicates the peak that was monitored to determine the Kd for compound II. […]

| SMILES | binding to BID |
| --- | --- |
| Nc1ccc(Sc2ccc(N)cc2)cc1 [XII] | weak binder |

Target: T2, tBID (Mus musculus, UniProt P70444)
T2 construct: tBID was produced by cleavage of purified BID with caspase-8, as known in the art; made in house; host or cells: E. coli BL21 (BID), then cleaved in vitro with caspase-8
T2 sequence (P70444 60-195 limits assumed): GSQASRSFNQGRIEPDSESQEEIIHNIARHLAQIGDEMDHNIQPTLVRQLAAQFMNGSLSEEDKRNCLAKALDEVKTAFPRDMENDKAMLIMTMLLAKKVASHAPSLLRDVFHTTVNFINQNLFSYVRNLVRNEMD
T2 sequence (P70444 1-59 partner limits assumed): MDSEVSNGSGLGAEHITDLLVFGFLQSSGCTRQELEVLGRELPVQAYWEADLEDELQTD
Assay: tBID-induced Smac release from isolated mitochondria
Format: biochemical
Details: 50 μM compound; isolated mitochondria
Experimental: 100 ng of tBID (cleaved by caspase 8) was pre-incubated with various concentrations of compounds for 15 minutes at 30° C. in HM buffer (10 mM Hepes, pH 7.4, 250 mM Mannitol, 10 mM KCl, 1.5 mM MgCl, 1 mM DTT, 1 mM EGTA), then 50 μg of isolated mitochondria from HCT116 cells were added to a final volume of 50 μl in HM buffer. After 1 hour incubation at 30° C., the samples were centrifuged at 10,000×g for 5 minutes at 4° C. and the supernatant was analyzed by SDS-PAGE/immunoblotting using anti-SMAC antibody.
Compounds II-IX were tested in vitro for their ability to inhibit BID-mediated release of Smac using mitochondria isolated from HeLa cells (FIG. 6A). The first lane represents mitochondria incubated without tBID. All others received 100 ng tBID without or with compounds. Each compound was tested at a concentration of 50 μM. […] To preliminarily investigate the mechanism by which compound II reduces Smac-release from isolated mitochondria, the tBID protein was treated with different concentrations of BI-6C9, after which it was incubated with mitochondria, followed by analysis of the bound and unbound fractions by immunoblotting using BID antibody. The concentration of mitochondria-bound tBID diminished in response to increasing concentrations of compound II.
About 50 ng of tBID cleaved by […] was pre-incubated for about 15 minutes at about 30° C. with various concentrations of compounds I, II, and X. Then, about 50 μg of isolated mitochondria from Hela cells were added to the reaction system. After about 1 hour of incubation at about 30° C., the samples were centrifuged at 10,000×g for about 5 minutes at about 4° C., and the supernatant was analyzed by SDS-PAGE/immunoblotting using Smac antibody. The results of the analysis are presented on FIG. 8. As shown by FIG. 9, compound I is a strong binder for BID.
Some results of comparative studies of compounds I and II are shown on FIG. 10. […] The first lane represents mitochondria incubated without tBID. All others received 50 ng tBid without or with bi-dentate compound.

| SMILES | inhibition at 50 µM [%] |
| --- | --- |
| COc1ccc(S(=O)(=O)NCCCC(=O)Nc2ccc(Sc3ccc([N+](=O)[O-])cc3)cc2)cc1 [Compound III, 4-(4-methoxy-benzenesulfonylamino)-N-[4-(4-nitro-phenylsulfanyl)-phenyl]-butyramide] | 24 |
| NCCCCCC(=O)Nc1ccc(Sc2ccc([N+](=O)[O-])cc2)cc1 [Compound IX, 6-amino-hexanoic acid [4-(4-nitro-phenylsulfanyl)-phenyl]-amide] | 60 |
| COc1ccc(S(=O)(=O)NCCCCCC(=O)Nc2ccc(Sc3ccc([N+](=O)[O-])cc3)cc2)cc1 [Compound V, 6-(4-methoxy-benzenesulfonylamino)-hexanoic acid [4-(4-nitro-phenylsulfanyl)-phenyl]-amide] | 16 |
| CC(C)(C)OC(=O)NCCCC(=O)Nc1ccc(Sc2ccc([N+](=O)[O-])cc2)cc1 [Compound VI, {3-[4-(4-nitro-phenylsulfanyl)-phenylcarbamoyl]-propyl}-carbamic acid tert-butyl ester] | 14 |
| NCCCC(=O)Nc1ccc(Sc2ccc([N+](=O)[O-])cc2)cc1 [Compound VII, 4-amino-N-[4-(4-nitro-phenylsulfanyl)-phenyl]-butyramide] | 66 |
| CC(C)(C)OC(=O)NCCCCCC(=O)Nc1ccc(Sc2ccc([N+](=O)[O-])cc2)cc1 [Compound VIII, {5-[4-(4-nitro-phenylsulfanyl)-phenylcarbamoyl]-pentyl}-carbamic acid tert-butyl ester] | 0 |
| Nc1ccc(Sc2ccc(N)cc2)cc1 [XII] | 22 |
| CNS(=O)(=O)c1ccc(C)cc1 [X] | 0 |
